# Patent US11103698B2, “Using alternating electric fields to increase cell membrane permeability” (The Board of Trustees of the Leland Stanford Junior …, priority 2018, dated 2021)
# How the values were obtained:
# [1] = system: U87-MG GBM on PCS-201 fibroblast co-cultures; assay: 5-ALA uptake (PpIX fluorescence) in glioblastoma-fibroblast co-culture under TTFields; type: cell-based, human
# U87-MG cells [2] = assay: 5-ALA uptake (PpIX fluorescence) under TTFields, single culture; type: cell-based, human
# Method: Experiments were performed to determine the effects of TTFields on uptake of 5-ALA (as measured by PpIX accumulation and its resultant fluorescence) in glioblastoma cells. Because it is difficult to distinguish the margin between tumor and normal cells using the present 5-ALA bioassay, the measurement of PpIX fluorescence was used to address this issue. Investigations were run to determine whether permeation of 5-ALA through the cellular membrane and into the glioblastoma cells could be increased with TTFields exposure. U87-MG cells were exposed or unexposed to TTFields, each for durations of 6-24 h.
# All monovariant statistical comparisons between no TTFields vs. TTFields samples done by Student's t-test for n=3 experiments per time point.
# U87-MG cells [3] = assay: 7-AAD accumulation by flow cytometry under alternating electric fields; type: cell-based, human; settings: 300 kHz, 1.62 V/cm RMS, 24 h; 7-AAD introduced 15 minutes prior to cessation of the field (other timings after cessation: no significant increase)
# Method: FIG. 7D depicts the results of an experiment to test how quickly the permeability drops back down after cessation of the alternating electric fields. More specifically, 7-Aminoactinomycin D (7-AAD) is a fluorescent chemical compound with a strong affinity for DNA. […] 7-AAD was introduced into samples at five different times: 15 minutes prior to the cessation of the alternating electric field; immediately after cessation of the alternating electric field; and 15, 30, and 60 minutes after cessation of the alternating electric field. In each case, the cells were incubated with 7-AAD for 30 minutes after introduction of the 7-AAD, followed by flow cytometry analysis of the percentage of cells with increased accumulation of the fluorescent 7-AAD for each of the different timings.
# After this 15 minute period, alternating electric field application was terminated and the cells were incubated at room temperature for an additional 15 minutes, followed by flow cytometry analysis of the percentage of cells with increased accumulation of the fluorescent 7-AAD for each of the different frequencies.
# [4] = system: MDA-MB-435 human melanoma cell line cells; assay: as above; type: cell-based; settings: 150 kHz, 1.62 V/cm, 24 h
# Method: After this 15 minute period, alternating electric field application was terminated and the cells were incubated at room temperature for an additional 15 minutes.
# After this 24 hour period, the alternating electric fields were turned off for 15 minutes, after which the 7-AAD was added. After waiting an additional 15 minutes, the percentage of cells with increased accumulation of the fluorescent 7-AAD was determined using flow cytometry.
# U87-MG/eGFP-fLuc cells [5] = system: U87-MG/eGFP-fLuc cells
# Method: U87-MG/eGFP-fLuc cells were seeded on Thermanox glass coverslips, allowed to settle and grow, and then subjected to either TTFields or no TTFields.
# To assess the reversibility of the effect of TTFields on cancer cells, U87-MG/eGFP-fLuc cells were subjected to three conditions: (1) No TTFields exposure, standard cell culture conditions (37° C., 95% 02, 5% CO2), (2) TTFields exposure for 24 h and (3) TTFields exposure for 24 h followed by no TTFields exposure for 24 h. The readouts of BLI, PpIX fluorescence (5-ALA product) and Dextran-FITC (4 kDa) fluorescence were acquired. All experimental conditions were done in triplicate.
# Briefly, cells in culture were trypsinized via standard protocols and 10,000-50,000 single cells were suspended in 200 or 75 μL of DMEM/10% FBS/1×antibiotic-antimycotic and then were seeded onto the center of a 22 mm or 12 mm diameter glass Thermanox™ coverslips respectively (ThermoFisher Scientific, Waltham, Mass., USA). The cells were incubated overnight in a humidified 95% air/5% CO2 incubator set at 37° C. Once the cells became attached to the coverslip, 2 mL or 1 mL of DMEM/10% FBS/lx antibiotic-antimycotic was added per well of 6-well or 12-well plates, respectively. […]
# GBM39 cells (GBM39/Luc) = assay: Sensitivity to drug and synergy with TTFields; type: cell-based, human; settings: for synergy of combination with TTFields: GBM39/Luc; for sensitivity of cells to various concentrations of drug: TTFields for 3 days vs no TTFields
# U87-MG/GFP-Luc cells = assay: Sensitivity to drug and synergy with TTFields; type: cell-based, human
# human glioblastoma cells = assay: Growth inhibition by TTFields in conjunction with compound; type: cell-based
# Source text: In this figure, 5-ALA=5-aminolevulinic acid; Ethidium D=ethidium bromide; and FITC=fluorescein isothiocyanate.
# U87-MG/eGFP-fLuc cells [6] = assay: Annexin-V-APC binding (apoptosis positive control), fluorescence microscopy; type: cell-based, human; settings: 21 μM, positive control for apoptosis, TTFields-unexposed
# Method: To test if the imposition of TTFields affects cell membrane properties, and thus membrane permeability, the effect of TTFields on the behavior of fluorescently tagged reagents that bind to the cellular membrane was determined. Initially, the impact of TTFields on the binding of Annexin-V-APC to the membrane of U87-MG/eGFP-fLuc cells was measured. Annexin-V-APC binding is a signature of early apoptosis which is characterized by ruffling of the membrane.
# [7] = system: KR158B murine astrocytoma cell line; assay: Bioluminescence imaging of Renilla luciferase-expressing astrocytoma cells under TTFields (coelenterazine substrate); type: cell-based; settings: TTFields exposure vs no TTFields
# Source text: Renilla luciferase activity is not dependent upon ATP and magnesium (as opposed to firefly luciferase). Thus, it is believed that the induction of bioluminescence by TTFields was not due to alterations in endogenous pools of ATP.
# [8] = system: MDA-MB-435 cells, wild type; assay: Intracellular accumulation of doxorubicin under alternating electric fields; type: cell-based, human; settings: 150 kHz, 1.62 V/cm, 23 h, then doxorubicin 10 μM for 1 h with field; vs no field
# MES-SA cells = assay: Intracellular accumulation of doxorubicin under 150 kHz alternating electric fields; type: cell-based; settings: 1.62 V/cm RMS, 24 h, doxorubicin 10 μM for last hour, vs untreated with field
# MDA-MB-235 cells = assay: Sensitivity to drug and synergy with TTFields; type: cell-based
# [9] = system: MDA-MB-435 cells, doxorubicin resistant; assay: Intracellular accumulation of doxorubicin under alternating electric fields; type: cell-based, human; settings: 150 kHz, 1.62 V/cm, 23 h, then doxorubicin 10 μM for 1 h with field; vs no field
# [10] = system: MCF-7 cells, mitoxantrone resistant; assay: Intracellular accumulation of mitoxantrone under alternating electric fields; type: cell-based, human; settings: 150 kHz, 1.62 V/cm, 23 h, then mitoxantrone 2 μM for 1 h with field; vs no field
# Method: (§1) The intracellular accumulation of mitoxantrone was then measured.
# [11] = system: MCF-7 human breast adenocarcinoma cells, wild type; assay: as above; type: cell-based; settings: 150 kHz, 1.62 V/cm, 23 h, then mitoxantrone 2 μM for 1 h with field; vs no field
# Method: as §1
# [12] = target: T1, purified firefly luciferase (Photinus pyralis, UniProt P08659); assay: Activity of purified firefly luciferase exposed to TTFields; type: biochemical; settings: 200 kHz TTFields, 60 minutes after initiation
# T1 construct: purchased Sigma Aldrich Inc (St. Louis, Mo.) SRE0045-2 MG
# T1 sequence (P08659 whole entry): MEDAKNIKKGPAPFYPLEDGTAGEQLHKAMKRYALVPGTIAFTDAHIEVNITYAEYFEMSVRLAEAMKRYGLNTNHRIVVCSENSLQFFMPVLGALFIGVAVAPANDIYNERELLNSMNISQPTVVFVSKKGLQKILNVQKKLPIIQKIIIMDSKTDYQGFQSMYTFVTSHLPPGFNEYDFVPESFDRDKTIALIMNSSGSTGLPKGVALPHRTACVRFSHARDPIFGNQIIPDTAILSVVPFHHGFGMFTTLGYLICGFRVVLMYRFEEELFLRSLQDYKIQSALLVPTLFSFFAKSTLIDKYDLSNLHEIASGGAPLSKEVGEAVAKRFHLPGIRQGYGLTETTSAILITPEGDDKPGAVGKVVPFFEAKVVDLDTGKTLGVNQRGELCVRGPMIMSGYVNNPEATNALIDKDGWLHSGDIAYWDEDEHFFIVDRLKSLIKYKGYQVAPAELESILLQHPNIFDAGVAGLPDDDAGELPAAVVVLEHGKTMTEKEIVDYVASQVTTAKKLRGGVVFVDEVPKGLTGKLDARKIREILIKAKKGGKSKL
# [13] = TTFields for 3 days vs no TTFields
compound,measurement,setting,value
"NCC(=O)CCC(=O)O [5-ALA, 5-aminolevulinic acid]",ratio of PpIX fluorescence intensity in U87-MG cells over surrounding PCS-201 fibroblast cells,"[1]; 24 h TTFields vs no TTFields, p=0.043",significantly increased
same,rate of PpIX fluorescence intensity increase,"[1]; TTFields-exposed vs unexposed co-cultures, 2, 6, 24 h, p<0.001",significantly augmented
same,uptake of 5-ALA (PpIX fluorescence),"U87-MG cells [2]; 6 h TTFields vs no TTFields, p=0.047",significantly increased uptake
same,uptake of 5-ALA (PpIX fluorescence),"U87-MG cells [2]; 24 h TTFields vs no TTFields, p=0.011",increase was maintained
same,"uptake (PpIX fluorescence), reversibility","U87-MG cells [2]; no TTFields vs TTFields 24 h vs TTFields 24 h followed by no TTFields 24 h, FIG. 7B",reversibly increase uptake
"Cc1c2oc3c(C)c(N)cc(C(=O)N[C@@H]4C(=O)N[C@H](C(C)C)C(=O)N5CCC[C@H]5C(=O)N(C)CC(=O)N(C)[C@@H](C(C)C)C(=O)O[C@@H]4C)c3nc-2c(C(=O)N[C@@H]2C(=O)N[C@H](C(C)C)C(=O)N3CCC[C@H]3C(=O)N(C)CC(=O)N(C)[C@@H](C(C)C)C(=O)O[C@@H]2C)c(N)c1=O [7-AAD, 7-Aminoactinomycin D]",accumulation of 7-AAD (percentage of cells with increased accumulation),U87-MG cells [3],significant increase
same,percentage of cells with increased accumulation of 7-AAD,[4]; 7-AAD added for last 15 min while field continued,~66%
same,percentage of cells with increased accumulation of 7-AAD,[4]; fields turned off for 15 minutes before 7-AAD was added,~20%
O=C(O)[C@H]1CSC(c2nc3ccc(O)cc3s2)=N1 [D-luciferin],permeation of the luciferase substrate through the plasma membrane (bioluminescence),U87-MG/eGFP-fLuc cells [5]; TTFields exposure vs no TTFields,increased permeation
same,"uptake (BLI flux), reversibility","U87-MG/eGFP-fLuc cells [5]; no TTFields vs TTFields 24 h vs TTFields 24 h followed by no TTFields 24 h, FIG. 7A",reversibly increase uptake
CCc1c2c(nc3ccc(OC(=O)N4CCC(N5CCCCC5)CC4)cc13)-c1cc3c(c(=O)n1C2)COC(=O)[C@]3(O)CC [Irinotecan],synergy of combination with TTFields,GBM39 cells (GBM39/Luc),synergy was found
same,sensitivity of cells to various concentrations of drug,GBM39 cells (GBM39/Luc); GBM39/Luc cells,improves the sensitivity
O=NN(CCCl)C(=O)NC1CCCCC1 [Lomustine],sensitivity of cells to various concentrations of drug,GBM39 cells (GBM39/Luc); GBM39 cells,improves the sensitivity
same,sensitivity of cells to various concentrations of drug,U87-MG/GFP-Luc cells; [13],improves the sensitivity
same,sensitivity of cells to various concentrations of drug,pcGBM2/GFP-Luc cells; [13],improves the sensitivity
CC1=C(CO)C(=O)O[C@@H]([C@@H](C)[C@H]2CC[C@H]3[C@@H]4C[C@H]5O[C@]56[C@@H](O)C=CC(=O)[C@]6(C)[C@H]4CC[C@]23C)C1 [Withaferin A],synergy of combination with TTFields,GBM39 cells (GBM39/Luc),synergy was found
same,synergy of combination with TTFields,U87-MG/GFP-Luc cells,synergy was found
same,growth inhibition in conjunction with TTFields,human glioblastoma cells,synergistically inhibited
same,Annexin-V-APC binding to cells (early apoptosis),U87-MG/eGFP-fLuc cells [6],could be visualized
same,synergy of combination with TTFields,pcGBM2/GFP-Luc cells,synergy was found
Oc1ccc(Cc2nc3c(Cc4ccccc4)nc(-c4ccc(O)cc4)cn3c2O)cc1 [coelenterazine],permeation of the luciferase substrate through the plasma membrane (bioluminescence),[7],increased permeation
COc1cccc2c1C(=O)c1c(O)c3c(c(O)c1C2=O)C[C@@](O)(C(=O)CO)C[C@@H]3O[C@H]1C[C@H](N)[C@H](O)[C@H](C)O1 [doxorubicin],intracellular accumulation of doxorubicin,[8],increased
same,increase in intracellular accumulation of doxorubicin,MES-SA cells,more than 2 ×
same,synergy of combination with TTFields,MDA-MB-235 cells,Evidence of synergy
same,sensitivity of cells to various concentrations of drug,MDA-MB-235 cells; [13],improves the sensitivity
same,intracellular accumulation of doxorubicin,[9],increased
O=C1c2c(O)ccc(O)c2C(=O)c2c(NCCNCCO)ccc(NCCNCCO)c21 [mitoxantrone],intracellular accumulation of mitoxantrone,[10],increased
same,intracellular accumulation of mitoxantrone,[11],increased
firefly luciferase: purified firefly luciferase enzyme (Sigma Aldrich SRE0045-2 MG),loss in enzymatic activity,[12],> 1000 fold
